Assay results: ChEMBL document CHEMBL5154725, “SAR evolution towards potent C-terminal carboxamide peptide inhibitors of Zika virus NS2B-NS3 protease” (Bioorg Med Chem, 2022)
Non-standard residues stand in square brackets, D forms with d. Residues, ends and D or L forms follow the SMILES beside them. *: point of attachment. Phe(4-CONH2) = NC(=O)c1ccc(C[C@H](N)C(=O)O)cc1; Phe(4-CH2NH2) = NCc1ccc(C[C@H](N)C(=O)O)cc1; AEF = NCCOc1ccc(C[C@H](N)C(=O)O)cc1; Lys(Me2) = CN(C)CCCC[C@H](N)C(=O)O; Hydrocinnamoyl = O=C(CCc1ccccc1)*; hLys = NCCCCC[C@H](N)C(=O)O; Orn = NCCC[C@H](N)C(=O)O; Dab = NCC[C@H](N)C(=O)O; PhAc = O=C(Cc1ccccc1)*; NHBn = c1ccc(CN*)cc1

Assay: Inhibition of 6-His tagged-G4SG4 fused ZIKV NS2B (49 to 95 residues) R95A mutant-NS3 (1 to 170 residue) R29G mutant expressed in Escherichia coli BL21 (DE3) using Bz-Nle-K-RR-AMC substrate preincubated for 10 mins followed by substrate addition and measured after 30 mins by fluorescence assay
Set-up: species or system Zika virus
In the case of `NCCCC[C@H](NC(=O)Cc1ccccc1)C(=O)N[C@@H](CCCCN)C(=O)N[C@H](C(=O)NCc1cccnc1)c1ccc(OCc2ccc(C(F)(F)F)cc2)cc1`, the IC50 is reported as 0.28 µM.
`N=C(N)NCCC[C@H](NC(=O)[C@H](CCCCN)NC(=O)[C@H](CCCCN)NC(=O)Cc1cccs1)C(N)=O` gave an IC50 of 16.5 µM.
With `CN(C)CCCC[C@H](NC(=O)[C@H](CCCCN)NC(=O)Cc1ccccc1)C(=O)N[C@@H](CCCNC(=N)N)C(N)=O` (PhAc-Lys-[Lys(Me2)]-Arg-NH2) the IC50 was 25.1 µM.
Work on `N=C(N)NCCC[C@H](NC(=O)c1cccs1)C(=O)N[C@@H](CCCCN)C(=O)N[C@H](C(N)=O)c1ccc(OCc2ccc(C(F)(F)F)cc2)cc1` yielded an IC50 of 2.5 µM.
`N=C(N)NCCC[C@H](NC(=O)[C@H](CCCCN)NC(=O)[C@H](CCCCN)NC(=O)Cc1ccccc1)C(=O)NCc1cccnc1` gave an IC50 of 10.4 µM.
For `NCCCC[C@H](NC(=O)Cc1ccccc1)C(=O)N[C@@H](CCCCN)C(=O)N[C@H](C(N)=O)c1ccc(OCc2ccc(C(F)(F)F)cc2)cc1`, the IC50 was 9.2 µM.
Compound `N#Cc1ccc(COc2ccc([C@H](NC(=O)[C@H](CCCCN)NC(=O)[C@H](CCCNC(=N)N)NC(=O)c3cccs3)C(N)=O)cc2)cc1` has an IC50 of 27.3 µM.
`NCCCC[C@H](NC(=O)Cc1ccncc1)C(=O)N[C@@H](CCCCN)C(=O)N[C@H](C(=O)NCc1ccccc1)c1ccc(OCc2ccc(C(F)(F)F)cc2)cc1` showed an IC50 of 0.069 µM.
`N=C(N)NCCC[C@H](NC(=O)c1cccs1)C(=O)N[C@@H](CCCCN)C(=O)N[C@H](C(N)=O)c1ccc(OCc2ncco2)cc1` showed an IC50 of over 100 µM.
With `N=C(N)NCCC[C@H](NC(=O)[C@H](CCCCN)NC(=O)[C@H](Cc1ccc(CN)cc1)NC(=O)Cc1ccccc1)C(N)=O` (PhAc-[Phe(4-CH2NH2)]-Lys-Arg-NH2) the IC50 was 8.57 µM.
In the case of `N=C(N)NCCC[C@H](NC(=O)[C@H](CCCN)NC(=O)[C@H](CCCCN)NC(=O)Cc1ccccc1)C(N)=O` (PhAc-Lys-[Orn]-Arg-NH2), the IC50 is reported as 3.9 µM.
With `NCCCC[C@H](NC(=O)Cc1ccccc1)C(=O)N[C@@H](CCCCN)C(=O)N[C@H](C(N)=O)c1ccccc1` the IC50 was 7 µM.
For `N=C(N)NCCC[C@H](NC(=O)[C@H](Cc1ccc(OCCN)cc1)NC(=O)[C@H](CCCCN)NC(=O)Cc1ccccc1)C(N)=O` (PhAc-Lys-[AEF]-Arg-NH2), the IC50 was over 100 µM.
`N=C(N)NCCC[C@H](NC(=O)c1cccs1)C(=O)N[C@@H](CCCCN)C(=O)NC(C(N)=O)c1cccc(OCc2ccc(C(F)(F)F)cc2)c1` (mixture of isomers) gave an IC50 of 6.4 µM.
Work on `NCCCC[C@H](NC(=O)Cc1ccccc1)C(=O)N[C@@H](CCCCN)C(=O)N[C@@H](C(N)=O)c1ccccc1` yielded an IC50 of 15 µM.
With `NCCCC[C@H](NC(=O)Oc1ccccc1)C(=O)N[C@@H](CCCCN)C(=O)N[C@H](C(=O)NCc1ccccc1)c1ccc(OCc2ccc(C(F)(F)F)cc2)cc1` the IC50 was 0.84 µM.
`N=C(N)NCCC[C@H](NC(=O)[C@H](CCCCN)NC(=O)[C@H](Cc1ccccc1)NC(=O)Cc1ccccc1)C(N)=O` (PhAc-Phe-Lys-Arg-NH2) showed an IC50 of 35 µM.
With `NCCCC[C@H](NC(=O)Cc1ccc(Cl)c(Cl)c1)C(=O)N[C@@H](CCCCN)C(=O)N[C@H](C(=O)NCc1ccccc1)c1ccc(OCc2ccc(C(F)(F)F)cc2)cc1` the IC50 was 0.17 µM.
For `NCCCC[C@H](NC(=O)Cc1ccccc1)C(=O)N[C@@H](CCCCN)C(=O)N[C@H](C(=O)NCC1CCCCC1)c1ccc(OCc2ccc(C(F)(F)F)cc2)cc1`, the IC50 was 0.08 µM.
`N=C(N)NCCC[C@H](NC(=O)c1cccs1)C(=O)N[C@@H](CCCCN)C(=O)N[C@H](C(N)=O)c1ccc(OCCN2CCCCC2)cc1` gave an IC50 of 3 µM.
Work on `NCCCCC(NC(=O)Cc1ccccc1)C(=O)N[C@@H](CCCCN)C(=O)NC(C(=O)NCc1ccccc1)c1ccc(OCc2ccc(C(F)(F)F)cc2)cc1` (single isomer, unassigned) yielded an IC50 of 1.12 µM.
In the case of `NCCCC[C@H](NC(=O)Cc1ccccc1)C(=O)N[C@@H](CCCCN)C(=O)N[C@H](C(=O)NCc1ccccc1)c1ccc(OCc2ccc(C(F)(F)F)cc2)cc1`, the IC50 is reported as 0.09 µM.
With `NCCCC[C@H](NC(=O)Cc1ccccc1)C(=O)N[C@@H](CCCCN)C(=O)N[C@H](C(=O)NC1Cc2ccccc2C1)c1ccc(OCc2ccc(C(F)(F)F)cc2)cc1` the IC50 was 2 µM.
`N=C(N)NCCC[C@H](NC(=O)[C@H](CCCCN)NC(=O)[C@H](CCCCN)NC(=O)CCc1ccccc1)C(N)=O` (Hydrocinnamoyl-Lys-Lys-Arg-NH2) showed an IC50 of 9.35 µM.
Work on `NCCCC[C@H](NC(=O)[C@H](CCCCN)NS(=O)(=O)Cc1ccccc1)C(=O)N[C@H](C(=O)NCc1ccccc1)c1ccc(OCc2ccc(C(F)(F)F)cc2)cc1` yielded an IC50 of 1.8 µM.
Compound `NCCCC[C@H](NC(=O)c1ccccc1)C(=O)N[C@@H](CCCCN)C(=O)N[C@H](C(=O)NCc1ccccc1)c1ccc(OCc2ccc(C(F)(F)F)cc2)cc1` has an IC50 of 0.09 µM.
Compound `NCCCC[C@H](NC(=O)c1cccs1)C(=O)N[C@@H](CCCCN)C(=O)N[C@H](C(=O)NCc1ccc(OCc2ccc(C(F)(F)F)cc2)cc1)c1ccccc1` has an IC50 of 0.2 µM.
Compound `CC(NC(=O)[C@H](CCCCN)NC(=O)[C@H](CCCNC(=N)N)NC(=O)c1cccs1)c1ccc(OCc2ccc(C(F)(F)F)cc2)cc1` (mixture of isomers) has an IC50 of 10.9 µM.
`N=C(N)NCCC[C@H](NC(=O)[C@H](CCCCN)NC(=O)[C@H](CCCCN)NC(=O)Cc1cccnc1)C(N)=O` showed an IC50 of 4.49 µM.
`N=C(N)NCCC[C@H](NC(=O)c1cccs1)C(=O)N[C@@H](CCCCN)C(=O)N[C@H](C(N)=O)c1ccc(OCc2ccccc2C(F)(F)F)cc1` showed an IC50 of 7.1 µM.
`CN(C)Cc1ccc(CNC(=O)[C@H](CCCNC(=N)N)NC(=O)[C@H](CCCCN)NC(=O)[C@H](CCCCN)NC(=O)Cc2ccccc2)cc1` gave an IC50 of 2.8 µM.
For `N=C(N)NCCC[C@H](NC(=O)c1cccs1)C(=O)N[C@@H](CCCCN)C(=O)N[C@H](C(N)=O)c1ccc(OCc2ccc3[nH]ncc3c2)cc1`, the IC50 was 5.3 µM.
With `N=C(N)NCCC[C@H](NC(=O)[C@H](CCCCN)NC(=O)[C@H](Cc1ccc(OCCN)cc1)NC(=O)Cc1ccccc1)C(N)=O` (PhAc-[AEF]-Lys-Arg-NH2) the IC50 was 30.7 µM.
In the case of `NCCCC[C@H](NC(=O)Cc1ccccc1)C(=O)N[C@@H](CCCCN)C(=O)N[C@H](C(=O)NCC1CCNCC1)c1ccc(OCc2ccc(C(F)(F)F)cc2)cc1`, the IC50 is reported as 0.35 µM.
`NCCCC[C@H](NC(=O)Cc1ccccc1)C(=O)N[C@@H](CCCCN)C(=O)N[C@H](C(=O)NCc1cccc(OCc2ccc(C(F)(F)F)cc2)c1)c1ccccc1` gave an IC50 of 0.24 µM.
In the case of `N=C(N)NCCC[C@H](NC(=O)[C@H](CCCCN)NC(=O)[C@H](CCCCN)NC(=O)Cc1ccncc1)C(N)=O`, the IC50 is reported as 5.2 µM.
For `N=C(N)NCCC[C@H](NC(=O)[C@H](CCN)NC(=O)[C@H](CCCCN)NC(=O)Cc1ccccc1)C(N)=O` (PhAc-Lys-[Dab]-Arg-NH2), the IC50 was 0.45 µM.
With `COc1ccc(CNC(=O)[C@@H](NC(=O)[C@H](CCCCN)NC(=O)[C@H](CCCCN)NC(=O)Cc2ccccc2)c2ccc(OCc3ccc(C(F)(F)F)cc3)cc2)cc1` the IC50 was 0.13 µM.
In the case of `N=C(N)NCCC[C@H](NC(=O)[C@H](Cc1ccc(C(N)=O)cc1)NC(=O)[C@H](CCCCN)NC(=O)Cc1ccccc1)C(N)=O` (PhAc-Lys-[Phe(4-CONH2)]-Arg-NH2), the IC50 is reported as over 100 µM.
In the case of `N=C(N)NCCC[C@H](NC(=O)[C@H](CCCCN)NC(=O)[C@H](CCCCN)NC(=O)Cc1ccccc1)C(=O)NCC1CCCCC1`, the IC50 is reported as 1.8 µM.
In the case of `NCCCC[C@H](NC(=O)Cc1ccccc1)C(=O)N[C@@H](CCCCN)C(=O)N[C@H](C(=O)NCC1CCCCC1)c1ccccc1`, the IC50 is reported as 0.69 µM.
For `N=C(N)NCCC[C@H](NC(=O)c1cccs1)C(=O)N[C@@H](CCCCN)C(=O)N[C@H](C(N)=O)c1ccc(OC2CCc3ccccc32)cc1` (mixture of isomers), the IC50 was 6.4 µM.
For `N=C(N)NCC[C@H](NC(=O)[C@H](CCCCN)NC(=O)[C@H](CCCCN)NC(=O)Cc1ccc(Cl)c(Cl)c1)C(=O)NCC1CCCCC1`, the IC50 was 1.7 µM.
With `CCOc1ccc([C@H](NC(=O)[C@H](CCCCN)NC(=O)[C@H](CCCNC(=N)N)NC(=O)c2cccs2)C(N)=O)cc1` the IC50 was 17.9 µM.
In the case of `CNC(=O)[C@@H](NC(=O)[C@H](CCCCN)NC(=O)[C@H](CCCCN)NC(=O)Cc1ccccc1)c1ccc(OCc2ccc(C(F)(F)F)cc2)cc1`, the IC50 is reported as 2.8 µM.
`NCCCC[C@H](NC(=O)Nc1ccccc1)C(=O)N[C@@H](CCCCN)C(=O)N[C@H](C(=O)NCc1ccccc1)c1ccc(OCc2ccc(C(F)(F)F)cc2)cc1` gave an IC50 of 0.16 µM.
Work on `CN(Cc1ccccc1)C(=O)N[C@@H](CCCCN)C(=O)N[C@@H](CCCCN)C(=O)N[C@@H](CCCNC(=N)N)C(N)=O` yielded an IC50 of 7.4 µM.
For `N=C(N)NCCC[C@H](NC(=O)[C@H](CCCCN)NC(=O)[C@H](CCCCN)NC(=O)Cc1ccccc1)C(=O)NCc1ccccc1` (PhAc-Lys-Lys-Arg-NHBn), the IC50 was 7.9 µM.
For `N=C(N)NCCC[C@H](NC(=O)c1cccs1)C(=O)N[C@@H](CCCCN)C(=O)N[C@H](C(=O)NCc1ccccc1)c1ccc(OCc2ccc(C(F)(F)F)cc2)cc1`, the IC50 was 0.31 µM.
In the case of `NCCCC[C@H](NC(=O)Cc1ccccc1)C(=O)N[C@@H](CCCCN)C(=O)N[C@H](C(=O)NCc1ccc(Cl)cc1)c1ccc(OCc2ccc(C(F)(F)F)cc2)cc1`, the IC50 is reported as 0.16 µM.
With `N=C(N)NCCC[C@H](NC(=O)[C@H](CCCCCN)NC(=O)[C@H](CCCCN)NC(=O)Cc1ccccc1)C(N)=O` (PhAc-Lys-[hLys]-Arg-NH2) the IC50 was 2.7 µM.
`N=C(N)NCCC[C@H](NC(=O)[C@H](CCCCN)NC(=O)[C@H](CCCCN)NC(=O)C(F)c1ccccc1)C(N)=O` (mixture of isomers) gave an IC50 of 4.94 µM.
With `CN(Cc1ccccc1)C(=O)[C@@H](NC(=O)[C@H](CCCCN)NC(=O)[C@H](CCCCN)NC(=O)Cc1ccccc1)c1ccc(OCc2ccc(C(F)(F)F)cc2)cc1` the IC50 was 4.7 µM.
With `NCCCC[C@H](NC(=O)Cc1ccccc1)C(=O)N[C@@H](CCCCN)C(=O)N[C@H](C(=O)NCc1cc(Cl)cc(Cl)c1)c1ccccc1` the IC50 was 0.32 µM.
Work on `N=C(N)NCCC[C@H](NC(=O)[C@H](CCCCN)NC(=O)[C@H](Cc1cccc(CN)c1)NC(=O)Cc1ccccc1)C(N)=O` yielded an IC50 of 37.5 µM.
In the case of `N=C(N)NCCC[C@H](NC(=O)c1cccs1)C(=O)N[C@@H](CCCCN)C(=O)N[C@H](C(N)=O)c1ccc(OCCN2CCOCC2)cc1`, the IC50 is reported as 22 µM.
In the case of `CC(=O)N[C@@H](CCCCN)C(=O)N[C@@H](CCCCN)C(=O)N[C@@H](CCCNC(=N)N)C(N)=O` (Ac-Lys-Lys-Arg-NH2), the IC50 is reported as 8.4 µM.
For `NCCCC[C@H](NC(=O)Cc1ccccc1)C(=O)N[C@@H](CCCCN)C(=O)N[C@H](C(=O)NCc1ccc(OCc2ccc(C(F)(F)F)cc2)cc1)c1ccccc1`, the IC50 was 0.14 µM.
Work on `N=C(N)NCCC[C@H](NC(=O)c1cccs1)C(=O)N[C@@H](CCCCN)C(=O)N[C@H](C(N)=O)c1ccc(OCCc2ccccc2)cc1` yielded an IC50 of 9.4 µM.
